# Laboratory results: PMC3700763, “First human dose-escalation study with remogliflozin etabonate, a selective inhibitor of the sodium-glucose transporter 2 (SGLT2), in healthy subjects and in subjects with type 2 diabetes mellitus” (BMC Pharmacology & Toxicology, 2013)
# Where two headings read alike, the source gives them in different places. Marks after values point to notes of the source that are not given here.
# Experiments:
# SGLT2 = molecular target: T1, SGLT2 (Homo sapiens, UniProt P31639); test: 24-h urine glucose excretion, T2DM subjects; format: in vivo; details: mean (SD)
# T1 construct: from tissue; host or cells: kidney (proximal tubule) of living human subjects: healthy volunteers and T2DM patients
# T1 sequence (P31639 1-672): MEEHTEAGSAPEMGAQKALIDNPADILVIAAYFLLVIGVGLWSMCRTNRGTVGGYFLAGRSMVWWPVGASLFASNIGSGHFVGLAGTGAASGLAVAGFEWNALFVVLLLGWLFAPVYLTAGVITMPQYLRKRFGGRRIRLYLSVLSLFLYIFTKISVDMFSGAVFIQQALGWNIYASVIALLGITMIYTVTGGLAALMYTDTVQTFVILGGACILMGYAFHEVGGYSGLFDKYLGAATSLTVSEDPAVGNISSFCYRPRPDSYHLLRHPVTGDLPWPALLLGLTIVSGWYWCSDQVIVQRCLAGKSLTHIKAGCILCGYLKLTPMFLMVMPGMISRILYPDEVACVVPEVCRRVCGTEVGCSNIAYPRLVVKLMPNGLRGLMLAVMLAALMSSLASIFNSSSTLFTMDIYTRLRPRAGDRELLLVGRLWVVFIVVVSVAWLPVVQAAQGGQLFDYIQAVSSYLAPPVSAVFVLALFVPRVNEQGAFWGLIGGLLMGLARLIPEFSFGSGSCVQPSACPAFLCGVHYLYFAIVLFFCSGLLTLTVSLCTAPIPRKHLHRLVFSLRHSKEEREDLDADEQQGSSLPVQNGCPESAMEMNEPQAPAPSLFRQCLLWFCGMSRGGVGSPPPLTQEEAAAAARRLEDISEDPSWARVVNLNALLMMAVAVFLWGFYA
# Description: Urine samples were collected at pre-dose, and over a series of intervals (0–2, 2–4, 4–6, 6–8, 8–12 and 12–24 h post-dose) for the analysis of creatinine, glucose and electrolytes (Na, K and Cl). All fluid intake was recorded, as well as urine volume, over the 24 hours before and after dosing in each treatment period. Urine was tested for protein on the first morning void of day -1 and 24 h after dosing.
# The percentage of filtered glucose excreted in the urine for each individual time period was calculated as the amount of glucose excreted during that time period divided by (CLCR × PG × time interval length), where CLCR is the creatinine clearance for the time interval, PG is the plasma glucose concentration closest to the midpoint of the time interval, and the time interval is the period (min) of urine collection (CLCR × PG represents the glucose filtered load). For the 24-h period, the percentage of filtered glucose excreted was calculated as the amount of glucose excreted over 24 h divided by the sum over the individual time intervals of (CLCR × PG × time interval length).
# [1] = Plasma pharmacokinetics, healthy subjects; format: in vivo, human; details: human; for Cmax: read-out: Cmax; for AUC(0-inf): read-out: AUC(0–∞)
# Description: Ten healthy subjects were evaluated in 5 study sessions, each separated by approximately 2 weeks. At each study session, subjects received either an oral dose of remogliflozin etabonate or placebo after an overnight fast. Remogliflozin etabonate doses were 20 mg, 50 mg, 150 mg, 500 mg and 1000 mg. Over the course of participation in the study, each subject received 4 of the 5 active remogliflozin etabonate doses and 1 dose of placebo (4:1 active to placebo ratio per treatment period). The available safety and PK results from each dosing period were evaluated before proceeding to the next dose level. On each dosing day, a series of 2.0 mL blood samples were collected at pre-dose and 10, 20, 30 and 45 min, and 1, 1.25, 1.5, 2, 2.5, 3, 4, 6, 8, 12, 16, and 24 h post-dose for the determination of remogliflozin etabonate, remogliflozin and GSK279782 in plasma by using high-performance liquid chromatography with tandem mass spectrometry (MS/MS) as described. Non-compartmental PK analysis of plasma concentration–time data was performed using WinNonlin Version 4.1 (Pharsight Corporation, Mountainview, CA, USA). The Cmax and Tmax were obtained directly from the data. Areas under the plasma concentration–time curves from time zero to the last quantifiable time point (AUC[0–last]) and extrapolated to infinity (AUC[0–∞]) were calculated using the log-linear trapezoidal method. The terminal plasma elimination rate-constant (λz) was estimated from log-linear regression analysis of the terminal phase of the plasma concentration–time curve, and the T½ was calculated as T½ = ln2/λz. Ratios of AUC(0–∞) remogliflozin to AUC(0–last) remogliflozin etabonate were calculated including molecular weight corrections. Safety and pharmacodynamic data were summarized using descriptive statistics. This was a small exploratory study and no formal hypothesis-testing was conducted. Dose proportionality with respect to Cmax, and AUC was assessed using the power model y = α dose^β, where y = Cmax or AUC, and α denotes a random subject effect. The exponent β in the power model will be estimated by regressing the loge-transformed PK parameters on loge dose, i.e. ln(PK parameter) = ln(α) + β * ln(dose). Dose proportionality implied that β = 1 and was assessed by estimating β and its corresponding 90% confidence interval. The power model was fitted by restricted maximum likelihood using SAS Proc Mixed.
# [2] = mice; cited from earlier work
# [3] = plasma prodrug, healthy subjects, 50 mg oral dose, geometric mean (CV%)
# [4] = plasma prodrug, healthy subjects, 150 mg oral dose, geometric mean (CV%)
# [5] = plasma prodrug, healthy subjects, 500 mg oral dose, geometric mean (CV%)
# [6] = plasma prodrug, healthy subjects, 1000 mg oral dose, geometric mean (CV%)
smiles,measurement,setting,value
"CCOC(=O)OC[C@H]1O[C@@H](Oc2nn(C(C)C)c(C)c2Cc2ccc(OC(C)C)cc2)[C@H](O)[C@@H](O)[C@@H]1O [Remogliflozin etabonate, remogliflozin etabonate]",Urinary glucose excretion,SGLT2; 50 mg single dose,384 (210) mmol
same,Filtered glucose excreted in urine,"SGLT2; 50 mg single dose, n = 5",15.9 (5.9)^c %
same,Filtered glucose excreted in urine,SGLT2; 500 mg single dose,21.6 (9.1) %
same,Urinary glucose excretion,SGLT2; 500 mg single dose,642 (256) mmol
same,half-life,"[1]; plasma, oral, both populations, independent of dose (abstract), read-out: mean plasma T½",~25 min
same,Tmax,"[1]; plasma, oral, healthy subjects, 20-1000 mg, read-out: median Tmax estimates, range across doses",31.2 to 75 min
same,half-life,"[1]; plasma, oral, healthy subjects, 20-1000 mg, read-out: median T½ estimates, range across doses",15.6 to 42.6 min
same,half-life,"[1]; plasma, po, 50 mg, plasma prodrug, healthy subjects, 50 mg oral dose, geometric mean (CV%), n = 6, read-out: T½ (converted)",21.2 min
same,half-life,"[1]; plasma, po, 150 mg, plasma prodrug, healthy subjects, 150 mg oral dose, geometric mean (CV%), n = 6, read-out: T½ (converted)",15.4 min
same,half-life,"[1]; plasma, po, 500 mg, plasma prodrug, healthy subjects, 500 mg oral dose, geometric mean (CV% 27), n = 4, read-out: T½ (converted)",15.8 min
same,half-life,"[1]; plasma, po, 1000 mg, plasma prodrug, healthy subjects, 1000 mg oral dose, geometric mean (CV% 56), n = 7, read-out: T½ (converted)",42.4 min
same,AUC(0-t),"[1]; plasma prodrug, healthy subjects, 20 mg oral dose, geometric mean (CV%), n = 5",1.61 ng·h/mL
same,Cmax,"[1]; plasma prodrug, healthy subjects, 20 mg oral dose, geometric mean (CV%)",1.89 ng/mL
same,Tmax,"[1]; plasma prodrug, healthy subjects, 20 mg oral dose, median, read-out: Tmax",37.5 min
same,AUC(0-t),[1]; [3],3.56 ng·h/mL
same,AUC(0-inf),"[1]; plasma prodrug, healthy subjects, 50 mg oral dose, geometric mean (CV%), n = 6",3.7 ng·h/mL
same,Cmax,[1]; [3],4.98 ng/mL
same,Tmax,"[1]; plasma prodrug, healthy subjects, 50 mg oral dose, median, read-out: Tmax",37.5 min
same,AUC(0-t),[1]; [4],9.51 ng·h/mL
same,AUC(0-inf),"[1]; plasma prodrug, healthy subjects, 150 mg oral dose, geometric mean (CV%), n = 6",9.77 ng·h/mL
same,Cmax,[1]; [4],17.6 ng/mL
same,Tmax,"[1]; plasma prodrug, healthy subjects, 150 mg oral dose, median, read-out: Tmax",30.9 min
same,AUC(0-t),[1]; [5],35.4 ng·h/mL
same,AUC(0-inf),"[1]; plasma prodrug, healthy subjects, 500 mg oral dose, geometric mean (CV%), n = 4",36.8 ng·h/mL
same,Cmax,[1]; [5],41.6 ng/mL
same,Tmax,"[1]; plasma prodrug, healthy subjects, 500 mg oral dose, median, read-out: Tmax",75 min
same,AUC(0-t),[1]; [6],107 ng·h/mL
same,AUC(0-inf),"[1]; plasma prodrug, healthy subjects, 1000 mg oral dose, geometric mean (CV%), n = 7",126 ng·h/mL
same,Cmax,[1]; [6],144 ng/mL
same,Tmax,"[1]; plasma prodrug, healthy subjects, 1000 mg oral dose, median, read-out: Tmax",37.5 min
same,Urinary glucose excretion,[2],concentration-dependent increase
